Experimental data: patent US12440496B2, “Natriuretic peptide receptor a agonists useful for the treatment of cardiometabolic diseases, kidney disease and diabetes” (Merck Sharp & Dohme LLC, priority 2019, dated 2025)
Where a name gives a salt, the structure may show the parent alone.

What follows are compounds tested against T1, hNPRA (Homo sapiens, UniProt P16066) (assay: NPRA Functional Cell Assay (cGMP HTRF, NPRA HEK JumpIn stable cells)). Details: cGMP production, 1 hour at 37° C., 10-point dose response.
T1 construct: expressed in transfected cells
T1 sequence (P16066 33-1061): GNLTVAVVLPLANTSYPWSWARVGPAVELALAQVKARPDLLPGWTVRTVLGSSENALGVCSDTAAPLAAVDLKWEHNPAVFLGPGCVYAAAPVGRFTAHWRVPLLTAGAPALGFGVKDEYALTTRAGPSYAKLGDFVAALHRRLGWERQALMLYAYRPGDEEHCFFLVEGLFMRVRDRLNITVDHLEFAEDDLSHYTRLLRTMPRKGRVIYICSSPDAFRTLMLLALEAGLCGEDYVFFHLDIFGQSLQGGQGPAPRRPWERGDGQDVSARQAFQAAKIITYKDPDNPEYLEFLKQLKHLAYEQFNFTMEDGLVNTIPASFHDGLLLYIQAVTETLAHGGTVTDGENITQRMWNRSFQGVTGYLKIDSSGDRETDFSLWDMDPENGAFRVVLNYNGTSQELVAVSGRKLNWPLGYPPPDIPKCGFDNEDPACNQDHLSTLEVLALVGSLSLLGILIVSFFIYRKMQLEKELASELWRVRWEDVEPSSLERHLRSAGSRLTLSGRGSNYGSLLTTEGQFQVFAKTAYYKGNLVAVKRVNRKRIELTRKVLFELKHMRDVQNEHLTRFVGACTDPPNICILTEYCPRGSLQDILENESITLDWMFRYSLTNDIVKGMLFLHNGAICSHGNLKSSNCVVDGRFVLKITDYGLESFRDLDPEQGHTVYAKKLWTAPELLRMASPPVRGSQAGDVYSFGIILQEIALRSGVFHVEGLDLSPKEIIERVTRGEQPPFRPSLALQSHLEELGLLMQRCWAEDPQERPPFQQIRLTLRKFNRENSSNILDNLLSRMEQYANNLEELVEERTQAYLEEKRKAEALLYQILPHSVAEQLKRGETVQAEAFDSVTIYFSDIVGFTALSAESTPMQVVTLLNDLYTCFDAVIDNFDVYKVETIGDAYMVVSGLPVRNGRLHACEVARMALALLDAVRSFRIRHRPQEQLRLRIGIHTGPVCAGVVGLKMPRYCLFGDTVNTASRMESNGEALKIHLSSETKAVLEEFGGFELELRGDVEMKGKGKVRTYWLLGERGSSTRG
Format: cell-based
Outline: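 cGMP HTRF read-out after 1 hour compound treatment at 37° C. of human NPRA-expressing HEK JumpIn cells, 1500 cells/well, in buffer with phosphodiesterase inhibitors IBMX and RO20 (100 uM each). Signal converted to [cGMP] by calibration curve; EC50s fitted by 4-parameter logistic; 50 nM h-ANP as positive response.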
`CN(C)C1CCN(CCC(NC(=O)c2cc3cc4c(nc3s2)CCC(C(C)(C)C)C4)c2ccc(-c3ccc(=O)[nH]c3)cc2)CC1` (racemic) [Example 28, dimethyl-[1-[rac-(3R)-3-[4-(6-oxo-1H-pyridin-3-yl)phenyl]-3-[[rac-(6S)-6-tert-butyl-5,6,7,8-tetrahydrothieno[2,3-b]quinoline-2-carbonyl]amino]propyl]-4-piperidyl]ammonium;formate] gave an EC50 of 446 nM.
`CN1CC[C@H](NC(=O)c2cccc([C@@H](CCN3CCC(O)CC3)NC(=O)c3nc4cc5c(nc4s3)CC[C@H](C(C)(C)C)C5)c2)C1` (racemic) [Example 138, rac-(7S)-7-tert-butyl-N-[rac-(1R)-3-(4-hydroxy-1-piperidyl)-1-[3-[[rac-(3S)-1-methylpyrrolidin-3-yl]carbamoyl]phenyl]propyl]-5,6,7,8-tetrahydrothiazolo[5,4-b]quinoline-2-carboxamide] gave an EC50 of 210 nM.
For `CN(C)CC[C@@H](NC(=O)c1nc2cc3c(nc2s1)CC[C@H](C(C)(C)C)C3)c1cccc(C(=O)N2CC(C)(O)C2)c1` (racemic) [Example 93, rac-(7S)-7-tert-butyl-N-[rac-(1R)-3-(dimethylamino)-1-[3-(3-hydroxy-3-methyl-azetidine-1-carbonyl)phenyl]propyl]-5,6,7,8-tetrahydrothiazolo[5,4-b] quinoline-2-carboxamide], the EC50 was 527 nM.
Compound `CN(C)CC[C@@H](NC(=O)c1nc2cc3c(nc2s1)CC[C@H](C(C)(C)C)C3)c1cccc(C(=O)N[C@H]2CCNC2)c1` (racemic) [Example 89, rac-(7S)-7-tert-butyl-N-[rac-(1R)-3-(dimethylamino)-1-[3-[rac-(3S)-pyrrolidin-3-yl]carbamoyl]phenyl] propyl]-5,6,7,8-tetrahydrothiazolo[5,4-b] quinoline-2-carboxamide] has an EC50 of 230 nM.
In the case of `CC(C)(C)[C@H]1CCc2nc3sc(C(=O)N[C@H](CCN4CCC(O)CC4)c4ccc(-c5ccnnc5)nc4)nc3cc2C1` [Example 263, (S)-7-(tert-butyl)-N-((R)-3-(4-hydroxypiperidin-1-yl)-1-(6-(pyridazin-4-yl)pyridin-3-yl)propyl)-5,6,7,8-tetrahydrothiazolo[5,4-b]quinoline-2-carboxamide], the EC50 is reported as 129 nM.
`CN(C)CC[C@@H](NC(=O)c1nc2cc3c(nc2s1)CC[C@H](C(C)(C)C)C3)c1cccc(C(=O)N2CCNCC2)c1` (racemic) [Example 97, rac-(7S)-7-tert-butyl-N-[rac-(1R)-3-(dimethyl-amino)-1-[3-(piperazine-1-carbonyl)phenyl]propyl]-5,6,7,8-tetrahydrothiazolo[5,4-b] quinoline-2-carboxamide] gave an EC50 of 1380 nM.
Compound `CN(C)CC[C@@H](NC(=O)c1nc2cc3c(nc2s1)CC[C@H](C(C)(C)C)C3)c1cccc(C(=O)NC2CCN(CC(F)(F)F)C2)c1` (mixture of isomers) [Example 100, rac-(7S)-7-tert-butyl-N-[rac-(1R)-3-(dimethyl-amino)-1-[3-[[1-(2,2,2-trifluoroethyl)pyrrolidin-3-yl]carbamoyl]phenyl]propyl]-5,6,7,8-tetrahydrothiazolo[5,4-b] quinoline-2-carboxamide] has an EC50 of 2000 nM.
`CC(C)(C)[C@H]1CCc2nc3sc(C(=O)N[C@H](CCN4CCC(O)CC4)c4ccc(-c5cnsc5)cc4)nc3cc2C1` (racemic) [Example 180, rac-(7S)-7-tert-butyl-N-[rac-(1R)-3-(4-hydroxy-1-piperidyl)-1-(4-isothiazol-4-ylphenyl)propyl]-5,6,7,8-tetrahydrothiazolo[5,4-b]quinoline-2-carboxamide] was tested, and the EC50 was 1440 nM.
With `CC(C)(C)[C@H]1CCc2nc3sc(C(=O)N[C@H](CCN4CCC[C@H]4CO)c4ccccc4)cc3cc2C1` [Example 257, (6S)-6-tert-butyl-N-{(1R)-3-[(2S)-2-(hydroxymethyl)pyrrolidin-1-yl]-1-phenylpropyl}-5,6,7,8-tetrahydrothieno[2,3-b]quinoline-2-carboxamide] the EC50 was 886 nM.
Work on `Cn1nnnc1-c1ccc([C@@H](CCN2CCC(O)CC2)NC(=O)c2nc3cc4c(nc3s2)CC[C@H](C(C)(C)C)C4)cc1` (racemic) [Example 177, rac-(7S)-7-tert-butyl-N-[rac-(1R)-3-(4-hydroxypiperidin-1-ium-1-yl)-1-[4-(1-methyltetrazol-5-yl)phenyl]propyl]-5,6,7,8-tetrahydrothiazolo[5,4-b]quinoline-2-carboxamide; 2,2,2-trifluoroacetate] yielded an EC50 of 1150 nM.
With `CC(C)(C)[C@H]1CCc2nc3sc(C(=O)N[C@H](CCN4CCCCC4CO)c4ccc(-c5ccc(=O)[nH]c5)cc4)cc3cc2C1` (mixture of isomers) [Example 30, rac-(6S)-6-tert-butyl-N-[rac-(1R)-3-[2-(hydroxymethyl)piperidin-1-ium-1-yl]-1-[4-(6-oxo-1H-pyridin-3-yl)phenyl]propyl]-5,6,7,8-tetrahydrothieno[2,3-b]quinoline-2-carboxamide;formate] the EC50 was 455 nM.
With `CNCC[C@@H](NC(=O)c1cc2cc3c(nc2s1)CC[C@H](C(C)(C)C)C3)c1ccc(-c2ccc(=O)[nH]c2)cc1` (racemic) [Example 42, rac-(6S)-6-tert-butyl-N-[rac-(1R)-3-(methylamino)-1-[4-(6-oxo-1H-pyridin-3-yl)phenyl]propyl]-5,6,7,8-tetrahydrothieno[2,3-b]quinoline-2-carboxamide] the EC50 was 658 nM.
Compound `CC(C)(C)[C@H]1CCc2nc3sc(C(=O)N[C@H](CCN[C@H]4C[C@H](O)C4)c4ccccc4)cc3cc2C1` [Example 260, (6S)-6-tert-butyl-N-{(1R)-3-[(trans-3-hydroxycyclobutyl)amino]-1-phenylpropyl}-5,6,7,8-tetrahydrothieno[2,3-b]quinoline-2-carboxamide] has an EC50 of 2000 nM.
Compound `Cc1nc(O)ccc1-c1ccc([C@@H](CCN2CCCCC2)NC(=O)c2cc3cc4c(nc3s2)CC[C@H](C(C)(C)C)C4)cc1` [Example 240, (6S)-6-tert-butyl-N-{(1R)-1-[4-(6-hydroxy-2-methylpyridin-3-yl)phenyl]-3-piperidin-1-ylpropyl}-5,6,7,8-tetrahydrothieno[2,3-b]quinoline-2-carboxamide] has an EC50 of 1660 nM.
Compound `CC(C)(C)[C@H]1CCc2nc3sc(C(=O)N[C@H](CCN4CCC5OCCCC5C4)c4ccc(-c5cnc(O)c(F)c5)cc4)nc3cc2C1` (mixture of isomers) [Example 204, rac-(7S)-7-tert-butyl-N-[rac-(1R)-3-(3,4,4a,5,6,7,8,8a-octahydro-2H-pyrano[3,2-c]pyridin-6-ium-6-yl)-1-[4-(5-fluoro-6-hydroxy-3-pyridyl)phenyl]propyl]-5,6,7,8-tetrahydrothiazolo[5,4-b]quinoline-2-carboxamide; formate] has an EC50 of 1290 nM.
For `CN1CC(NC(=O)c2cccc([C@@H](CCN3CC4C(C3)C4C(=O)O)NC(=O)c3nc4cc5c(nc4s3)CC[C@H](C(C)(C)C)C5)c2)C1` (mixture of isomers) [Example 108, 3-[rac-(3R)-3-[3-[(1-methylazetidin-1-ium-3-yl)carbamoyl]phenyl]-3-[[rac-(7S)-7-tert-butyl-5,6,7,8-tetrahydrothiazolo [5,4-b]quinoline-2-carbonyl]amino]propyl]-3-azabicyclo[3.1.0]hexane-6-carboxylic acid; 2,2,2-trifluoroacetate], the EC50 was 621 nM.
`CC(C)(C)[C@H]1CCc2nc3sc(C(=O)N[C@H](CCN4CCC(O)CC4)c4ccc(N5CCOC5=O)nc4)nc3cc2C1` (racemic) [Example 186, rac-(7S)-7-tert-butyl-N-[rac-(1R)-3-(4-hydroxy-1-piperidyl)-1-[6-(2-oxooxazolidin-3-yl)-3-pyridyl]propyl]-5,6,7,8-tetrahydrothiazolo[5,4-b]quinoline-2-carboxamide] gave an EC50 of 350 nM.
